Patent publication EP0550016A1, “Novel quinolone carboxylic acid derivatives and processes for preparing same” (KOREA RESEARCH INSTITUTE OF CHEMICAL TECHNOLOGY, priority 1991, dated 1993)
In brackets after ≈: the same amount, converted by molar mass. Like-named read-outs stand apart in the source and are kept apart here.

Legend:
S. aureus 17740 = assay: Preventive effect against the systemic infection; format: in vivo; conditions: Staphylococcus aureus, 168 h, NMRI mice, survival on day 7, read-out: ED₅₀
Experimental: (§1) 10 fold of the pathogen which leads to 100% lethality were injected intraperitoneally to male and female NMRI mice weighing 18 to 20g. Immediately and after 4 hours, the dose of test compounds which was determined by two-fold serial dilution method was administered orally or subcutaneously; and on day 7, the effectiveness was evaluated in terms of ED₅₀ calculated from the number of survived mice by the probit analysis.

[1] = tested on: Pseudomonas aeruginosa 1771 M; assay: In vitro anti-bacterial activity test (MIC, two-fold dilution method) against the standard strains; format: cell-based; conditions: Table 1 strain 15: Pseudomonas aeruginosa 1771 M
[2] = tested on: Enterobacter cloacae 1321 E; assay: as above; format: cell-based; conditions: Table 1 strain 20: Enterobacter cloacae 1321 E
[3] = tested on: Streptococcus pyogenes 77 A; assay: as above; format: cell-based; conditions: Table 1 strain 2: Streptococcus pyogenes 77 A; read-out: MIC
Acute Toxicity Test = conditions: mouse, in vivo, female ICR mice, day 14, read-out: Acute Toxicity(LD₅₀)
Experimental: Test compounds were administered to female ICR mice weighing 20 to 25g and on day 14, LD₅₀ was calculated from the number of survived mice by the probit analysis.

Escherichia coli DC 2 = assay: In vitro anti-bacterial activity test (MIC, two-fold dilution method) against the standard strains; format: cell-based; conditions: DC2
Escherichia coli OTEM = assay: as above; format: cell-based; conditions: Table 1 strain 10: Escherichia coli OTEM
[4] = tested on: Staphylococcus aureus SG 511; assay: as above; format: cell-based; conditions: SG511; Table 1 strain 4: Staphylococcus aureus SG 511
[5] = tested on: Pseudomonas aeruginosa 1771; assay: as above; format: cell-based; conditions: Table 1 strain 14: Pseudomonas aeruginosa 1771
[6] = tested on: Klebsiella aerogenes 1082 E; assay: as above; format: cell-based; conditions: Table 1 strain 17: Klebsiella aerogenes 1082 E
Escherichia coli DC 0 [7] = assay: as above; format: cell-based; conditions: DC0; Table 1 strain 7: Escherichia coli DC 0
Escherichia coli 1507 E = assay: as above; format: cell-based; conditions: Table 1 strain 11: Escherichia coli 1507 E
Salmonella typhimurium = assay: as above; format: cell-based; conditions: Salmonella enterica; Table 1 strain 16: Salmonella typhimurium
[8] = tested on: Staphylococcus aureus 285; assay: as above; format: cell-based; conditions: Table 1 strain 5: Staphylococcus aureus 285; read-out: MIC
Escherichia coli DC 0 [9] = assay: as above; format: cell-based; conditions: DC0; Table 1 strain 8: Escherichia coli DC 0
[10] = tested on: Staphylococcus aureus 503; assay: as above; format: cell-based; conditions: Table 1 strain 6: Staphylococcus aureus 503; read-out: MIC
[11] = tested on: Pseudomonas aeruginosa 1592 E; assay: as above; format: cell-based; conditions: Table 1 strain 13: Pseudomonas aeruginosa 1592 E
[12] = tested on: Enterobacter cloacae P 99; assay: as above; format: cell-based; conditions: P99; Table 1 strain 19: Enterobacter cloacae P 99
[13] = tested on: Streptococcus faecium MD 8b; assay: as above; format: cell-based; conditions: Enterococcus faecium, MD8B; Table 1 strain 3: Streptococcus faecium MD 8b; read-out: MIC
[14] = tested on: Streptococcus pyogenes 308 A; assay: as above; format: cell-based; conditions: Table 1 strain 1: Streptococcus pyogenes 308 A
[15] = tested on: Pseudomonas aeruginosa 9027; assay: as above; format: cell-based; conditions: Table 1 strain 12: Pseudomonas aeruginosa 9027
[16] = tested on: Klebsiella aerogenes 1522 E; assay: as above; format: cell-based; conditions: Table 1 strain 18: Klebsiella aerogenes 1522 E
P. mirabilis = assay: Preventive effect against the systemic infection; format: in vivo; conditions: Proteus mirabilis, 168 h, NMRI mice, survival on day 7, read-out: ED₅₀
Experimental: as §1

[17] = Table 1 strain 9: Escherichia coli DC 2, read-out: MIC

| Structure (SMILES) | MIC [1] [µg/mL] | MIC [2] [µg/mL] | MIC [3] [µg/mL] | MIC (Escherichia coli OTEM) [µg/mL] | MIC [4] [µg/mL] | MIC [5] [µg/mL] | MIC [6] [µg/mL] | MIC (Escherichia coli DC 0 [7]) [µg/mL] | MIC (Escherichia coli 1507 E) [µg/mL] | MIC (Salmonella typhimurium) [µg/mL] | MIC [8] [µg/mL] | MIC (Escherichia coli DC 0 [9]) [µg/mL] | MIC [10] [µg/mL] | MIC [11] [µg/mL] | MIC [12] [µg/mL] | MIC [13] [µg/mL] | MIC [14] [µg/mL] | MIC [15] [µg/mL] | MIC [16] [µg/mL] | MIC (Escherichia coli DC 2; [17]) [µg/mL] | also measured |
| --- | --- | --- | --- | --- | --- | --- | --- | --- | --- | --- | --- | --- | --- | --- | --- | --- | --- | --- | --- | --- | --- |
| CC(O)C(=O)O.NC1CC12CCN(c1c(F)cc3c(=O)c(C(=O)O)cn(C4CC4)c3c1F)C2 (centres unmarked) [Example 2, 7-(1-amino-5-azaspiro[2,4]heptane-5-yl)-1-cyclopropyl-6,8-difluoro-1,4-dihydro-4-oxoquinoline-3-carboxylic acid lactate] | 0.098 | 0.007 | 0.098 | 0.025 | 0.025 | 0.781 | 0.013 | 0.004 | 0.025 | 0.013 | 0.025 | 0.195 | 0.025 | 0.781 | 0.013 | 0.098 | 0.195 | 0.781 | 0.025 | – | ED50 (S. aureus 17740; Oral Administration): 49.7 mg/kg; ED50 (S. aureus 17740; sc, Subcutaneous Injection): 97.6 mg/kg; LD50 (Acute Toxicity Test; ip, Intraperitoneal Injection): 580 mg/kg; LD50 (Acute Toxicity Test; Oral Administration): 3800 mg/kg; MIC (Escherichia coli DC 2; Escherichia coli): 0.049 µg/mL |
| C[C@H]1COc2c(N3CCC4(CC4N)C3)c(F)cc3c(=O)c(C(=O)O)cn1c23 (some centres unmarked) [Example 13] | 0.391 (≈ 1.05 µM) | 0.049 (≈ 0.131 µM) | 0.195 (≈ 0.522 µM) | 0.049 (≈ 0.131 µM) | 0.098 (≈ 0.262 µM) | 1.56 (≈ 4.19 µM) | 0.004 (≈ 0.0107 µM) | 0.025 (≈ 0.067 µM) | 0.098 (≈ 0.262 µM) | 0.049 (≈ 0.131 µM) | 0.098 (≈ 0.262 µM) | 0.391 (≈ 1.05 µM) | 0.049 (≈ 0.131 µM) | 1.56 (≈ 4.19 µM) | 0.049 (≈ 0.131 µM) | 0.195 (≈ 0.522 µM) | 0.391 (≈ 1.05 µM) | 1.56 (≈ 4.19 µM) | 0.098 (≈ 0.262 µM) | 0.098 (≈ 0.262 µM) | LD50 at 336 h (Acute Toxicity Test; ip, Intraperitoneal Injection): 620 mg/kg; LD50 at 336 h (Acute Toxicity Test; Oral Administration): 4000 mg/kg |
| NC1CC12CCN(c1c(F)cc3c(=O)c(C(=O)O)cn(C4CC4)c3c1Cl)C2 (centres unmarked) [Example 3, 7-(1-amino-5-azaspiro[2,4]heptane-5-yl)-8-chloro-1-cyclopropyl-6-fluoro-1,4-dihydro-4-oxoquinoline-3-carboxylic acid] | 0.195 (≈ 0.498 µM) | < 0.002 | 0.025 (≈ 0.0638 µM) | 0.007 (≈ 0.0179 µM) | 0.025 (≈ 0.0638 µM) | 0.781 (≈ 1.99 µM) | < 0.002 | < 0.002 | 0.025 (≈ 0.0638 µM) | 0.004 (≈ 0.0102 µM) | 0.007 (≈ 0.0179 µM) | 0.195 (≈ 0.498 µM) | 0.004 (≈ 0.0102 µM) | 0.781 (≈ 1.99 µM) | 0.004 (≈ 0.0102 µM) | 0.391 (≈ 0.998 µM) | 0.098 (≈ 0.25 µM) | 0.781 (≈ 1.99 µM) | 0.004 (≈ 0.0102 µM) | 0.025 (≈ 0.0638 µM) | ED50 (P. mirabilis; Oral Administration): 2.58 mg/kg; ED50 (P. mirabilis; sc, Subcutaneous Injection): 0.63 mg/kg |
| NC1CC12CCN(c1c(F)cc3c(=O)c(C(=O)O)cn(C4CC4)c3c1F)C2 (centres unmarked) [Example 1, 7-(1-amino-5-azaspiro[2,4]heptane-5-yl)-1-cyclopropyl-6,8-difluoro-1,4-dihydro-4-oxoquinoline-3-carboxylic acid] | 0.195 (≈ 0.519 µM) | 0.004 (≈ 0.0107 µM) | 0.098 (≈ 0.261 µM) | 0.013 (≈ 0.0346 µM) | 0.025 (≈ 0.0666 µM) | 0.391 (≈ 1.04 µM) | 0.004 (≈ 0.0107 µM) | 0.004 (≈ 0.0107 µM) | 0.013 (≈ 0.0346 µM) | 0.013 (≈ 0.0346 µM) | 0.025 (≈ 0.0666 µM) | 0.195 (≈ 0.519 µM) | 0.025 (≈ 0.0666 µM) | 0.391 (≈ 1.04 µM) | 0.013 (≈ 0.0346 µM) | 0.195 (≈ 0.519 µM) | 0.195 (≈ 0.519 µM) | 0.781 (≈ 2.08 µM) | 0.013 (≈ 0.0346 µM) | 0.049 (≈ 0.131 µM) | ED50 (S. aureus 17740; Oral Administration): 128 mg/kg; ED50 (S. aureus 17740; sc, Subcutaneous Injection): 16.8 mg/kg; ED50 (P. mirabilis; Oral Administration): 7.13 mg/kg; ED50 (P. mirabilis; sc, Subcutaneous Injection): 1.36 mg/kg; LD50 (Acute Toxicity Test; ip, Intraperitoneal Injection): 605 mg/kg; LD50 (Acute Toxicity Test; Oral Administration): 3800 mg/kg |
| NCC1CC12CCN(c1c(F)cc3c(=O)c(C(=O)O)cn(C4CC4)c3c1F)C2 (centres unmarked) [Example 15] | 0.391 (≈ 1 µM) | 0.049 (≈ 0.126 µM) | 0.195 (≈ 0.501 µM) | 0.098 (≈ 0.252 µM) | 0.098 (≈ 0.252 µM) | 1.56 (≈ 4.01 µM) | 0.025 (≈ 0.0642 µM) | 0.049 (≈ 0.126 µM) | 0.098 (≈ 0.252 µM) | 0.098 (≈ 0.252 µM) | 0.195 (≈ 0.501 µM) | 0.781 (≈ 2.01 µM) | 0.195 (≈ 0.501 µM) | 1.56 (≈ 4.01 µM) | 0.195 (≈ 0.501 µM) | 0.391 (≈ 1 µM) | 0.781 (≈ 2.01 µM) | 1.56 (≈ 4.01 µM) | 0.195 (≈ 0.501 µM) | 0.098 (≈ 0.252 µM) | – |
| C[C@H]1COc2c(N3CCC4(CC4C(=O)O)C3)c(F)cc3c(=O)c(C(=O)O)cn1c23 (some centres unmarked) [Example 14] | 1.56 (≈ 3.88 µM) | 0.195 (≈ 0.485 µM) | 1.56 (≈ 3.88 µM) | 0.391 (≈ 0.972 µM) | 0.098 (≈ 0.244 µM) | 12.5 (≈ 31.1 µM) | 0.098 (≈ 0.244 µM) | 0.195 (≈ 0.485 µM) | 0.781 (≈ 1.94 µM) | 0.781 (≈ 1.94 µM) | 0.098 (≈ 0.244 µM) | 6.25 (≈ 15.5 µM) | 0.098 (≈ 0.244 µM) | 6.25 (≈ 15.5 µM) | 0.391 (≈ 0.972 µM) | 1.56 (≈ 3.88 µM) | 3.12 (≈ 7.77 µM) | 12.5 (≈ 31.1 µM) | 1.56 (≈ 3.88 µM) | 0.391 (≈ 0.972 µM) | – |
